Laboratory results from paper PMC10824666 (Nature Cancer, 2023).
Read-outs that look alike come from different tables or passages of the source.

Tests used:
Test in all cases: biochemical
Set-up in all cases: Eurofins DiscoverX kinase panel, competitive binding assay at 1 uM, percent of DMSO control
Settings in all cases: competitive binding, percent of DMSO control
[1] = biological target: DYRK1a (Homo sapiens, UniProt Q13627)
Outline: (§1)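 Single-point profiling at 1 µM compound in a competition-binding format against 96 kinases, read out as POC relative to control; n = 1.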

[2] = biological target: T1, Tyk-2 (Homo sapiens, UniProt P29597)
T1 construct: gene TYK2
Outline: as §1

[3] = biological target: MAP3K1 (Homo sapiens, UniProt Q13233)
Outline: as §1

[4] = biological target: T2, ROCK 2 (Homo sapiens, UniProt O75116)
T2 construct: gene ROCK2
Outline: as §1

[5] = biological target: MAPK4 (Homo sapiens, UniProt P31152)
Outline: as §1

[6] = biological target: T3, Trk-A (Homo sapiens, UniProt P04629)
T3 construct: gene NTRK1
Outline: as §1

[7] = biological target: CAMK2D (Homo sapiens, UniProt Q13557)
Outline: as §1

[8] = biological target: ERN1 (Homo sapiens, UniProt O75460)
Outline: as §1

[9] = biological target: LYN (Homo sapiens, UniProt P07948)
Outline: as §1

[10] = biological target: T4, TSSK1B (Homo sapiens, UniProt Q9BXA7)
T4 sequence (Q9BXA7 1-367): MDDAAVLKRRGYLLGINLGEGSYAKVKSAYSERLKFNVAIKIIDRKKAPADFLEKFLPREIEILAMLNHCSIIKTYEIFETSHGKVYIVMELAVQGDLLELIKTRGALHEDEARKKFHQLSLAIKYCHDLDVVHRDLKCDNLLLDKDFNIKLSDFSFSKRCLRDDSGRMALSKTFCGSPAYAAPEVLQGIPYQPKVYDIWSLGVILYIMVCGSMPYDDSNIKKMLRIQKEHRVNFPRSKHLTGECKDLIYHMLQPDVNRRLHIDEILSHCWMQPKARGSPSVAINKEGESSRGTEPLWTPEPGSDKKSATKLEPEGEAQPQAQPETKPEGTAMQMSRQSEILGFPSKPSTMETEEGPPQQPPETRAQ
Outline: as §1

[11] = biological target: PRKAA1 (Homo sapiens, UniProt Q13131)
Outline: as §1

[12] = biological target: OXSR1 (Homo sapiens, UniProt O95747)
Outline: as §1

[13] = read-out: Kinome Profiling performed by Eurofins DiscoverX / AM-1882, 1.0 µM / POC
[14] = read-out: Kinome Profiling performed by Eurofins DiscoverX / AM-0277, 1.0 µM / POC
[15] = read-out: Kinome Profiling performed by Eurofins DiscoverX / AM-5308, 1.0 µM / POC

T3 sequence (P04629 whole entry): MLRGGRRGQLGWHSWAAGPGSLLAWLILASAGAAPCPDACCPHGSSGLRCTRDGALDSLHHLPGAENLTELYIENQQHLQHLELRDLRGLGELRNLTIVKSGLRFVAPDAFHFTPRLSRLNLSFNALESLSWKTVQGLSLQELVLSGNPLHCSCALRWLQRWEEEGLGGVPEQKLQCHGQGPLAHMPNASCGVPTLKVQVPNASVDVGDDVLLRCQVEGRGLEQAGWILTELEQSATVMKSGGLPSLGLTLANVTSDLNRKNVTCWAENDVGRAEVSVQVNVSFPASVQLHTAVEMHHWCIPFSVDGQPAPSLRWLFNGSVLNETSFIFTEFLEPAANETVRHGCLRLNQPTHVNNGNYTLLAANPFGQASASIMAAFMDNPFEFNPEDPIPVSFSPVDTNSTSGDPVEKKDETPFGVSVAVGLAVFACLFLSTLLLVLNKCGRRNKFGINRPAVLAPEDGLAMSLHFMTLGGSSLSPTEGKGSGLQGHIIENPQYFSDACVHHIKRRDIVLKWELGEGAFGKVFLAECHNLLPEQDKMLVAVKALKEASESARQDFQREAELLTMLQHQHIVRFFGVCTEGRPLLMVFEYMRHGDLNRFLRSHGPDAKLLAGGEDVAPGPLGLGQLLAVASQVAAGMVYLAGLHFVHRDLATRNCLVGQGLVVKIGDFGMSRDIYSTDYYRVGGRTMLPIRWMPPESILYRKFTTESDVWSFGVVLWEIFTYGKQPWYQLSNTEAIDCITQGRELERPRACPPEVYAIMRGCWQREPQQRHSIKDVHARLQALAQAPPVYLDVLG
Sequence of OXSR1 (O95747 whole entry): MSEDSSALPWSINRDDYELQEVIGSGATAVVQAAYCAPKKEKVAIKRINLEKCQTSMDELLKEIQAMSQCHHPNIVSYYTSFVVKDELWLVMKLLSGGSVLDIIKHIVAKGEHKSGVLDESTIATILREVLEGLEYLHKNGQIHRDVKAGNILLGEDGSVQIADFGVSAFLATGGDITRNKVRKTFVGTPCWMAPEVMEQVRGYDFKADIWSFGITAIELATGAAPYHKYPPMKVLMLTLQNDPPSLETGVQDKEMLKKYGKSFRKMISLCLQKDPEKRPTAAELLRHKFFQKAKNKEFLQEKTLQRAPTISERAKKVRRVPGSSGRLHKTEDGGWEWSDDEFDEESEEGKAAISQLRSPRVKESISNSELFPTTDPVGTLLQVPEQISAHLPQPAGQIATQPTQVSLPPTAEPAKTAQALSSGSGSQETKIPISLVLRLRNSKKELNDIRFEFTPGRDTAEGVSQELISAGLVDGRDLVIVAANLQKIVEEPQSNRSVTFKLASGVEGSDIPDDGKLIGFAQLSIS
Sequence of PRKAA1 (Q13131 whole entry): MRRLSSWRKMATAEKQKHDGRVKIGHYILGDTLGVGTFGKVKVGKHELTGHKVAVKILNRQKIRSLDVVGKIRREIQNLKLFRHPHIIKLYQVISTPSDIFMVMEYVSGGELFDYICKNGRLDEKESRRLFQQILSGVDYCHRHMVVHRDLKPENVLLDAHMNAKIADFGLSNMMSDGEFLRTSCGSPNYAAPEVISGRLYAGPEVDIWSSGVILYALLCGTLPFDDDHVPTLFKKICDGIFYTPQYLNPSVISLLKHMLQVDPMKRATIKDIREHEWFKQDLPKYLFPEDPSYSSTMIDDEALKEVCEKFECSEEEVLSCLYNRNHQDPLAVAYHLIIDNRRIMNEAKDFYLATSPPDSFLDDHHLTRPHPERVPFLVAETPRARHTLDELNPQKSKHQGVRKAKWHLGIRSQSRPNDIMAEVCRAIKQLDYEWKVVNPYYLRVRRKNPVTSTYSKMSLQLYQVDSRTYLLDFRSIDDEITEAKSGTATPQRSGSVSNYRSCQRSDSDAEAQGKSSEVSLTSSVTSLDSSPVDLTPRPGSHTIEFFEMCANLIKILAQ
Sequence of PRKAA1 (P54619 whole entry partner): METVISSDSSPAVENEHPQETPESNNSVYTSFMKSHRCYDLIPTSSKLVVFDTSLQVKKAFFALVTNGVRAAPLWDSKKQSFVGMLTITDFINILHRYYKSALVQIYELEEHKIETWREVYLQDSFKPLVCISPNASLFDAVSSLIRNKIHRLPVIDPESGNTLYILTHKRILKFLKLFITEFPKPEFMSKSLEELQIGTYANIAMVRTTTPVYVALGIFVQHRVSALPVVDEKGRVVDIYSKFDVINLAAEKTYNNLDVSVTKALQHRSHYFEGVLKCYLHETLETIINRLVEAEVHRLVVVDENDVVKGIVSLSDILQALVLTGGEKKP
Sequence of PRKAA1 (Q9Y478 whole entry partner): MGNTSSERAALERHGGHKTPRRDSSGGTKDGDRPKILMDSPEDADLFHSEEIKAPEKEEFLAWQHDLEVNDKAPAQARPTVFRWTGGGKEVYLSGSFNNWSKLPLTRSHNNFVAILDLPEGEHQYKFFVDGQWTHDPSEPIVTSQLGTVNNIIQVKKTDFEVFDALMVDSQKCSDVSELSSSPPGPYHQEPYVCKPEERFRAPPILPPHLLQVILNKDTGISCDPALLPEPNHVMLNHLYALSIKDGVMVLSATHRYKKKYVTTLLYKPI
Sequence of CAMK2D (Q13557 whole entry): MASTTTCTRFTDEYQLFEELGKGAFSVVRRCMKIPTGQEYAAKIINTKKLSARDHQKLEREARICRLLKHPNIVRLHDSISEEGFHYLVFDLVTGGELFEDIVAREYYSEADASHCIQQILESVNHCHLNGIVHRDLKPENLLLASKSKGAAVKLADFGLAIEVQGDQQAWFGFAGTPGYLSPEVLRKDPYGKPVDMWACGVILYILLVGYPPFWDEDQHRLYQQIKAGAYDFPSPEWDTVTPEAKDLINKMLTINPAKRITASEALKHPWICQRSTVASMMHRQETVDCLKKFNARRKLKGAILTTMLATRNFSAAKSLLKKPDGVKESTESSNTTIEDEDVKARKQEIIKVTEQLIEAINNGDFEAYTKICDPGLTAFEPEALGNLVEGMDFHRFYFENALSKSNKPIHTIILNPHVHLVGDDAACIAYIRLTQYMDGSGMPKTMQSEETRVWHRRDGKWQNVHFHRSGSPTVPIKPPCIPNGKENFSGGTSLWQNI
Sequence of LYN (P07948 whole entry): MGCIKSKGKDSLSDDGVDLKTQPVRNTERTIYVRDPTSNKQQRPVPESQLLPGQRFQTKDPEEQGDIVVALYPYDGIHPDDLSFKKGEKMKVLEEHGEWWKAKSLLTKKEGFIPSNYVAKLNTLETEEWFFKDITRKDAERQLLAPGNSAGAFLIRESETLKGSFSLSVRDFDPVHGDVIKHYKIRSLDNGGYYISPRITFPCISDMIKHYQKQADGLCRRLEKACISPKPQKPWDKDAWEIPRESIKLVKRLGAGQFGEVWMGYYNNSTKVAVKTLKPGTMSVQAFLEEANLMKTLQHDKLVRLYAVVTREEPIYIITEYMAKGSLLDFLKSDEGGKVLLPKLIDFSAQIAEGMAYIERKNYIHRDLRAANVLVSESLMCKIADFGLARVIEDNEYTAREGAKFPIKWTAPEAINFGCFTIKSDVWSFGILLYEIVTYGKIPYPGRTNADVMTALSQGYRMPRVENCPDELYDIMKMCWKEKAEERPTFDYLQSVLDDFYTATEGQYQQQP
Sequence of MAPK4 (P31152 whole entry): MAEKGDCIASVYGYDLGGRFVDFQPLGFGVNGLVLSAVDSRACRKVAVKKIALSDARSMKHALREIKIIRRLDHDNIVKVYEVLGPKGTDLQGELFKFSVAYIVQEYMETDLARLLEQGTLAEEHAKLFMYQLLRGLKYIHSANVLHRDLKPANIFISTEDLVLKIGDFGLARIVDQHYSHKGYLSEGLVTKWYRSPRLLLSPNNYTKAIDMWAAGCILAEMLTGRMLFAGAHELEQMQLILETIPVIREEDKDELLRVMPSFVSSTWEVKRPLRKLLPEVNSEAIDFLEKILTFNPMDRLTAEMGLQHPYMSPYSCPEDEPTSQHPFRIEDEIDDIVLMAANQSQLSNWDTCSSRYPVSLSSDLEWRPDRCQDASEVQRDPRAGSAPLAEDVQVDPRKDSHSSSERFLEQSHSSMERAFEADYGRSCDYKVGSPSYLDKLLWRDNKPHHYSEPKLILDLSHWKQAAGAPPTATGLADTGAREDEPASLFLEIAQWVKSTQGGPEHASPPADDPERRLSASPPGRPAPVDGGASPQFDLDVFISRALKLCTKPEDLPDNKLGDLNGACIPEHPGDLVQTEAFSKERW

Work on `CC(C)(C)NS(=O)(=O)c1cccc(NC(=O)c2ccc(S(=O)(=O)NC(C)(C)C)cc2N2CCC3(CC2)CC3)c1` [AM-1882] yielded a remaining activity at 1 µM [1, 13] of 81%, a remaining activity at 1 µM [2, 13] of 100% and a remaining activity at 1 µM [3, 13] of 76.5%. The remaining activity at 1 µM [4, 13] was 77%, the remaining activity at 1 µM [5, 13] was 99% and the remaining activity at 1 µM [6, 13] was 54.5%. The remaining activity at 1 µM [7, 13] was 100%, the remaining activity at 1 µM [8, 13] was 100% and the remaining activity at 1 µM [9, 13] was 99.5%. The remaining activity at 1 µM [10, 13] was 100%, the remaining activity at 1 µM [11, 13] was 100% and the remaining activity at 1 µM [12, 13] was 92.5%.
Work on `CC(C)(CO)Nc1ccc(C(=O)Nc2cccc(S(=O)(=O)C3CCCC3)c2)c(N2CCC3(CC2)CC3)n1` [AM-0277] yielded a remaining activity at 1 µM [1, 14] of 100%, a remaining activity at 1 µM [2, 14] of 100% and a remaining activity at 1 µM [3, 14] of 100%. The remaining activity at 1 µM [4, 14] was 100%, the remaining activity at 1 µM [5, 14] was 98% and the remaining activity at 1 µM [6, 14] was 40%. For the same compound, the remaining activity at 1 µM [7, 14] was 91%, the remaining activity at 1 µM [8, 14] was 100% and the remaining activity at 1 µM [9, 14] was 100%. The remaining activity at 1 µM [10, 14] was 84%, the remaining activity at 1 µM [11, 14] was 96% and the remaining activity at 1 µM [12, 14] was 100%.
`C[C@@H]1CN(c2cccc(NC(=O)c3ccc(NS(=O)(=O)CCO)cc3N3CCC4(CC3)CC4)n2)CCO1` [AM-5308] was tested, and the remaining activity at 1 µM [1, 15] was 100%, the remaining activity at 1 µM [2, 15] was 84% and the remaining activity at 1 µM [3, 15] was 100%. The remaining activity at 1 µM [4, 15] was 97.5%, the remaining activity at 1 µM [5, 15] was 81.5% and the remaining activity at 1 µM [6, 15] was 17.5%. It also gave a remaining activity at 1 µM [7, 15] of 58.5%, a remaining activity at 1 µM [8, 15] of 80% and a remaining activity at 1 µM [9, 15] of 86.5%. It also gave a remaining activity at 1 µM [10, 15] of 100%, a remaining activity at 1 µM [11, 15] of 97% and a remaining activity at 1 µM [12, 15] of 82.5%.
